In US20230407243A1, “GENETIC PLATFORM TO INVESTIGATE THE FUNCTIONS OF BACTERIAL DRUG EFFLUX PUMPS” (priority 2022, published 2023):
Where two headings read alike, the source gives them in different places.

Assays:
Format in all cases: cell-based, Escherichia coli
E. coli EKO-35 = assay: microbe, parasite or virus in culture; conditions: for Fold change of MICs: EKO-35 compared to EKO-35 (reference); for MIC: Escherichia coli, EKO35, technical duplicate
Method in brief: (§1)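 Overnight LB cultures were grown at 37 °C with aeration, then washed into PBS, pH 7.4, to OD600 ~1.0. A 1/2000 dilution in MHB II was exposed to compound dilution series for 18 h at 37 °C. The MIC was taken from corrected OD600.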

E. coli ΔtolC = assay: microbe, parasite or virus in culture; conditions: for MIC: Escherichia coli, 18 h, read-out: Minimum Inhibitory Concentration, ΔtolC; for Minimum inhibitory concentration (MIC), ΔtolC: Table 10, without pore, technical duplicate
Method in brief: as §1

[1] = tested on: wild-type E. coli K-12 str. BW25113; assay: microbe, parasite or virus in culture; conditions: Escherichia coli, BW25113, technical duplicate
Method in brief: as §1

EKO-35 araC::acrEF = assay: MIC susceptibility profiling, efflux platform; conditions: EKO-35 araC::acrEF compared to EKO-35
Method in brief: as §1

EKO-35 araC::emrAB = assay: MIC susceptibility profiling, efflux platform; conditions: for Fold change of MICs: EKO-35 araC::emrAB compared to EKO-35; for MIC: Escherichia coli, Table 13B, non-porinated, technical duplicate, read-out: Minimum Inhibitory Concentration, EKO-35 araC::emrAB
Method in brief: as §1

EKO-35 araC::macAB = assay: MIC susceptibility profiling, efflux platform; conditions: for Fold change of MICs: EKO-35 araC::macAB compared to EKO-35; for MIC: Escherichia coli, Table 13B, non-porinated, technical duplicate, read-out: Minimum Inhibitory Concentration, EKO-35 araC::macAB
Method in brief: as §1

wild-type (WT) K-12-Pore = assay: microbe, parasite or virus in culture; conditions: Escherichia coli, technical duplicate
Method in brief: (§2)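 Strains carry the fhuA ΔC/Δ4L pore integrated between glmS and pstS under a constitutive promoter, with pore activity checked by vancomycin susceptibility. Overnight LB cultures were adjusted in PBS pH 7.4 to OD600 ~1.0 and diluted 1/2000 into MHB II. 2-fold compound titrations were read by OD600 after 18 h at 37 °C.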

ΔtolC-Pore = assay: microbe, parasite or virus in culture; conditions: for MIC: Escherichia coli, 18 h, read-out: Minimum inhibitory concentration, ΔtolC-Pore; for Minimum inhibitory concentration (MIC), Pore ΔtolC: Table 10, with pore, technical duplicate
Method in brief: as §2

EKO-35-Pore = assay: MIC susceptibility profiling, porinated strain; conditions: for Fold changes of MICs: EKO-35-Pore compared to EKO-35-Pore (reference); for MIC: Escherichia coli, technical duplicate
Method in brief: as §2

EKO-35 araC::acrB Pore = assay: MIC susceptibility profiling, porinated efflux platform; conditions: for Fold changes of MICs: EKO-35 araC::acr-B Pore compared to EKO-35-Pore
Method in brief: as §2

[2] = tested on: EKO-35 araC::acrBD408A Pore; assay: as above; conditions: for Fold changes of MICs: EKO-35 araC::acrBD408A Pore compared to EKO-35-Pore; for MIC: Escherichia coli, EKO-35 araC::acrBD408A Pore, technical duplicate, read-out: Minimum inhibitory concentration
Method in brief: as §2

EKO-35 araC::acrD Pore = assay: as above; conditions: for Fold changes of MICs: EKO-35 araC::acrD Pore compared to EKO-35-Pore; for MIC: Escherichia coli, Table 14A, porinated, technical duplicate, read-out: Minimum inhibitory concentration, EKO-35 araC::acrD Pore
Method in brief: as §2

EKO-35 araC::acrEF Pore = assay: as above; conditions: for Fold changes of MICs: EKO-35 araC::acrEF Pore compared to EKO-35-Pore; for MIC: Escherichia coli, Table 14A, porinated, technical duplicate, read-out: Minimum inhibitory concentration, EKO-35 araC::acrEF Pore
Method in brief: as §2

EKO-35 araC::emrAB Pore = assay: as above; conditions: for Fold changes of MICs: EKO-35 araC::emrAB Pore compared to EKO-35-Pore; for MIC: Escherichia coli, EKO-35 araC::emrAB Pore, technical duplicate, read-out: Minimum inhibitory concentration
Method in brief: as §2

EKO-35 araC::emrKY Pore = assay: as above; conditions: for Fold changes of MICs: EKO-35 araC::emrKY Pore compared to EKO-35-Pore; for MIC: Escherichia coli, EKO-35 araC::emrKY Pore, technical duplicate, read-out: Minimum inhibitory concentration
Method in brief: as §2

EKO-35 araC::macAB Pore = assay: as above; conditions: for Fold changes of MICs: EKO-35 araC::macAB Pore compared to EKO-35-Pore; for MIC: Escherichia coli, EKO-35 araC::macAB Pore, technical duplicate, read-out: Minimum inhibitory concentration
Method in brief: as §2

EKO-35 araC::mdtBC Pore = assay: as above; conditions: for Fold changes of MICs: EKO-35 araC::mdtBC Pore compared to EKO-35-Pore; for MIC: Escherichia coli, EKO-35 araC::mdtBC Pore, technical duplicate, read-out: Minimum inhibitory concentration
Method in brief: as §2

EKO-35 araC::mdtEF Pore = assay: as above; conditions: for Fold changes of MICs: EKO-35 araC::mdtEF Pore compared to EKO-35-Pore; for MIC: Escherichia coli, Table 14A, porinated, technical duplicate, read-out: Minimum inhibitory concentration, EKO-35 araC::mdtEF Pore
Method in brief: as §2

EKO-35 araC::mexCD Pore = assay: as above; conditions: for Fold changes of MICs: EKO-35 araC::mexCD Pore compared to EKO-35-Pore; for MIC: Escherichia coli, EKO-35 araC::mexCD Pore, technical duplicate, read-out: Minimum inhibitory concentration
Method in brief: as §2

[3] = Table 10, without pore, read-out: Minimum inhibitory concentration (MIC), EKO-35
[4] = Table 13A, non-porinated, read-out: Minimum Inhibitory Concentration, EKO-35
[5] = Table 10, without pore, read-out: Minimum inhibitory concentration (MIC), K-12
[6] = Table 13A, non-porinated, read-out: Minimum Inhibitory Concentration, K-12
[7] = Table 10, with pore, read-out: Minimum inhibitory concentration (MIC), Pore K-12
[8] = Table 14A, porinated, read-out: Minimum inhibitory concentration, K-12 (WT)-Pore
[9] = Table 10, with pore, read-out: Minimum inhibitory concentration (MIC), Pore EKO-35
[10] = Table 14A, porinated, read-out: Minimum inhibitory concentration, EKO-35-Pore

Compound | Fold change of MICs (E. coli EKO-35) [fold] | MIC (E. coli EKO-35; [3]) [µg/mL] | MIC (E. coli EKO-35; [4]) [µg/mL] | MIC (E. coli ΔtolC) [µg/mL] | Minimum inhibitory concentration (MIC), ΔtolC (E. coli ΔtolC) [µg/mL] | MIC [1, 5] [µg/mL] | MIC [1, 6] [µg/mL] | Fold change of MICs (EKO-35 araC::acrEF) [fold] | Fold change of MICs (EKO-35 araC::emrAB) [fold] | MIC (EKO-35 araC::emrAB) [µg/mL] | Fold change of MICs (EKO-35 araC::macAB) [fold] | MIC (EKO-35 araC::macAB) [µg/mL] | MIC (wild-type (WT) K-12-Pore; [7]) [µg/mL] | MIC (wild-type (WT) K-12-Pore; [8]) [µg/mL] | MIC (ΔtolC-Pore) [µg/mL] | Minimum inhibitory concentration (MIC), Pore ΔtolC (ΔtolC-Pore) [µg/mL] | Fold changes of MICs (EKO-35-Pore) [fold] | MIC (EKO-35-Pore; [9]) [µg/mL] | MIC (EKO-35-Pore; [10]) [µg/mL] | Fold changes of MICs (EKO-35 araC::acrB Pore) [fold] | also measured
CCn1cc(C(=O)O)c(=O)c2ccc(C)nc21 [nalidixic acid] | 1 | 1.25 | 1.25 | 1.25 | 1.25 | 10 | 10 | 4 | 8 | 10 | 1 | 1.25 | 5 | 5 | 1.25 | 1.25 | 1 | 1.25 | 1.25 | 8 | MIC (EKO-35 araC::acrB Pore; Escherichia coli, Table 14A, porinated, technical duplicate, read-out: Minimum inhibitory concentration, EKO-35 araC::acrB Pore): 10 µg/mL; Fold changes of MICs [2]: 1 fold; MIC [2]: 1.25 µg/mL; Fold changes of MICs (EKO-35 araC::acrD Pore): 1 fold; MIC (EKO-35 araC::acrD Pore): 1.25 µg/mL; efflux pump-mediated resistance vs EKO-35-Pore (EKO-35 araC::acrEF Pore; AcrEF with the pore): impacted the ability of AcrEF to confer resistance; Fold changes of MICs (EKO-35 araC::acrEF Pore): 2 fold; MIC (EKO-35 araC::acrEF Pore): 2.5 µg/mL; Fold changes of MICs (EKO-35 araC::emrAB Pore): 8 fold; MIC (EKO-35 araC::emrAB Pore): 10 µg/mL; Fold changes of MICs (EKO-35 araC::emrKY Pore): 1 fold; MIC (EKO-35 araC::emrKY Pore): 1.25 µg/mL; Fold changes of MICs (EKO-35 araC::macAB Pore): 1 fold; MIC (EKO-35 araC::macAB Pore): 1.25 µg/mL; Fold changes of MICs (EKO-35 araC::mdtBC Pore): 1 fold; MIC (EKO-35 araC::mdtBC Pore): 1.25 µg/mL; Fold changes of MICs (EKO-35 araC::mdtEF Pore): 1 fold; MIC (EKO-35 araC::mdtEF Pore): 1.25 µg/mL; Fold changes of MICs (EKO-35 araC::mexCD Pore): 2 fold; MIC (EKO-35 araC::mexCD Pore): 2.5 µg/mL
CCn1cc(C(=O)O)c(=O)c2cc(F)c(N3CCNCC3)cc21 [norfloxacin] | 1 | 0.02 | 0.02 | 0.02 | 0.020 | 0.078 | 0.078 | 4 | 1 | 0.02 | 1 | 0.02 | 0.078 | 0.078 | 0.01 | 0.010 | 1 | 0.01 | 0.01 | 8 | Fold changes of MICs [2]: 2 fold; MIC [2]: 0.02 µg/mL; Fold changes of MICs (EKO-35 araC::acrD Pore): 2 fold; MIC (EKO-35 araC::acrD Pore): 0.02 µg/mL; Fold changes of MICs (EKO-35 araC::acrEF Pore): 4 fold; MIC (EKO-35 araC::acrEF Pore): 0.039 µg/mL; Fold changes of MICs (EKO-35 araC::emrAB Pore): 2 fold; MIC (EKO-35 araC::emrAB Pore): 0.02 µg/mL; Fold changes of MICs (EKO-35 araC::emrKY Pore): 1 fold; MIC (EKO-35 araC::emrKY Pore): 0.01 µg/mL; Fold changes of MICs (EKO-35 araC::macAB Pore): 2 fold; MIC (EKO-35 araC::macAB Pore): 0.02 µg/mL; Fold changes of MICs (EKO-35 araC::mdtBC Pore): 2 fold; MIC (EKO-35 araC::mdtBC Pore): 0.02 µg/mL; Fold changes of MICs (EKO-35 araC::mdtEF Pore): 2 fold; MIC (EKO-35 araC::mdtEF Pore): 0.02 µg/mL; Fold changes of MICs (EKO-35 araC::mexCD Pore): 4 fold; MIC (EKO-35 araC::mexCD Pore): 0.039 µg/mL; efflux pump-mediated resistance vs EKO-35-Pore (EKO-35 araC::mexCD Pore; MexCD, OM compromised): increased resistance
